According to ChEMBL document CHEMBL3797124, “Synthesis of azepino[4,5-b]indol-4-ones via MCR/free radical cyclization and in vitro-in silico studies as 5-Ht₆R ligands” (Bioorg Med Chem Lett, 2016):

Tests used:
[1] = target: 5-hydroxytryptamine receptor 6 (Rattus norvegicus) (UniProt P31388); test: Displacement of [3H]-LSD from rat 5-Ht6 receptor expressed in HEK cells at 10 uM after 60 mins by liquid scintillation counting; assay type: cell-based; conditions: HEK293
[2] = target: 5-hydroxytryptamine receptor 6 (Rattus norvegicus, UniProt P31388); test: Displacement of [3H]-LSD from rat 5-Ht6 receptor expressed in HEK cells after 60 mins by liquid scintillation counting; assay type: cell-based, HEK293
5-hydroxytryptamine receptor 6, sequence (P31388 whole entry): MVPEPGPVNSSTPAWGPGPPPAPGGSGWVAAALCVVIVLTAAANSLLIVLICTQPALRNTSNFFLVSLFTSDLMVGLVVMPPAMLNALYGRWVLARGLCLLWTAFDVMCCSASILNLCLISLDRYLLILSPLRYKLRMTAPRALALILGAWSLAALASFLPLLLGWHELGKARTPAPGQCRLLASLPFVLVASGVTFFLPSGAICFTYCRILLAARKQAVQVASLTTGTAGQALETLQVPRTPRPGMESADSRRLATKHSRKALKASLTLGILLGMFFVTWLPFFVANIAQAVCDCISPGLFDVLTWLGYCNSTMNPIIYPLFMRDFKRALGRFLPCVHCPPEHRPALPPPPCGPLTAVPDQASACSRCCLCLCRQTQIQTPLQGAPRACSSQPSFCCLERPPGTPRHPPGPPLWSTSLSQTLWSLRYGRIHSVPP

5-hydroxytryptamine receptor 6 (Rattus norvegicus), sequence (P31388 whole entry): as above

SMILES	log(%) [1]	Ki [2] [nM]	inhibition [1] [%]
COc1cccc(C(C(=O)NC(C)(C)C)N2CCc3c([nH]c4ccccc34)CC2=O)c1OC (stereo not drawn)	1.98	211	
CC(C)(C)NC(=O)C(c1ccc2c(c1)OCO2)N1CCc2c([nH]c3ccccc23)CC1=O (stereo not drawn)	0.85		7
CC(C)(C)NC(=O)C(c1ccc(Br)cc1)N1CCc2c([nH]c3ccccc23)CC1=O (stereo not drawn)	1.82		66
Cc1cccc(C)c1NC(=O)C(C1CCCCC1)N1CCc2c([nH]c3ccccc23)CC1=O (stereo not drawn)	0.85		7
CC(C)(C)n1nnnc1C(C1CCCCC1)N1CCc2c([nH]c3ccccc23)CC1=O (stereo not drawn)	0.3		2
Cc1cccc(C)c1-n1nnnc1C(C1CCCCC1)N1CCc2c([nH]c3ccccc23)CC1=O (stereo not drawn)	0.48		3
Cc1cccc(C)c1NC(=O)C(c1ccc(Cl)cc1)N1CCc2c([nH]c3ccccc23)CC1=O (stereo not drawn)	1.32		21
CC(C)(C)NC(=O)C(C1CCCCC1)N1CCc2c([nH]c3ccccc23)CC1=O (stereo not drawn)	1		10
CN(C)c1ccc(C(C(=O)NC(C)(C)C)N2CCc3c([nH]c4ccccc34)CC2=O)cc1 (stereo not drawn)	1.2		16
O=C(NC1CCCCC1)C(c1ccc(Cl)cc1)N1CCc2c([nH]c3ccccc23)CC1=O (stereo not drawn)	1.18		15
O=C1Cc2[nH]c3ccccc3c2CCN1C(c1ccc(Cl)cc1)c1nnnn1C1CCCCC1 (stereo not drawn)	1.23		17
Cc1cccc(C)c1-n1nnnc1C(c1ccc(Cl)cc1)N1CCc2c([nH]c3ccccc23)CC1=O (stereo not drawn)	1.28		19
CC(C)(C)n1nnnc1C(c1ccc(Br)cc1)N1CCc2c([nH]c3ccccc23)CC1=O (stereo not drawn)	1.76		57
COc1cccc(C(c2nnnn2C(C)(C)C)N2CCc3c([nH]c4ccccc34)CC2=O)c1OC (stereo not drawn)	1.2		16
CN(C)c1ccc(C(c2nnnn2C(C)(C)C)N2CCc3c([nH]c4ccccc34)CC2=O)cc1 (stereo not drawn)	0		1
CSc1ccc2c(c1)C(N1CCN(C)CC1)Cc1ccccc1S2 (stereo not drawn)	2		100
CC(C)(C)NC(=O)C(c1ccc(Cl)cc1)N1CCc2c([nH]c3ccccc23)CC1=O (stereo not drawn)	1.62		42
CC(C)(C)n1nnnc1C(c1ccc2c(c1)OCO2)N1CCc2c([nH]c3ccccc23)CC1=O (stereo not drawn)	1.08		12
CC(C)(C)n1nnnc1C(c1ccc(Cl)cc1)N1CCc2c([nH]c3ccccc23)CC1=O (stereo not drawn)	1.04		41
